From US7495027B2, “3-aryl-4-hydroxyfuranone compounds and the human and animal health use thereof” (Wyeth, priority 2003, dated 2009)

Test system: C. elegans
Experiment: Efficacy against nematodes (C. elegans motility rating)
Set-up: key: 0: no effect; 7: reduced movement in 24 h; 8: dead in 24 h; 9: dead in 4 h
Conditions: observations at 4 h and 24 h postimmersion
Description: Evaluation of the Efficacy of a 3-Aryl-4-Hydroxyfuranone Against Nematodes
In this evaluation, cultures of C. elegans are maintained on E. coli lawns on Nematode Growth Agar at 20° C. New cultures are established twice a week. Nematodes for testing are rinsed from plates using M9 Buffer. […] One μL of this solution is added to each well of a 96 well plate. A mixture of C. elegans in M9 Buffer (100 μL) is added to each well, such that approximately 50 worms of mixed stages (L1, L2, L3, L4 and adults) are present in each well at a final concentration of 100 ppm, 150 ppm or […] of test compound. Concentration of test compound may be varied by gradient dilution of the stock DMSO solution. Observations are made under a dissecting microscope at 4 h and 24 h postimmersion. A rating is based on the motility of the larvae and adults, using the rating system shown below.

| SMILES | Rating (dose 100 ppm) | Rating (dose 150 ppm) | other results |
| --- | --- | --- | --- |
| Cc1nc(C=C2OC(=O)C(c3ccc(OC(F)(F)F)cc3)=C2O)c[nH]1 (mixture of isomers) | 0 |  |  |
| Cn1cc(Cl)c(C=C2OC(=O)C(c3ccc(OC(F)(F)F)cc3)=C2O)n1 (mixture of isomers) | 0 |  |  |
| O=C1OC(=Cc2ccc(C(F)(F)F)cc2)C(O)=C1c1ccc(Cl)cc1 (mixture of isomers) [R=H; R1=4-Cl—C6H4**; R2=4-CF3—C6H4] | 9 |  |  |
| N#Cc1cccc(C2=C(O)/C(=C/c3ccc(-c4cccc(C#N)c4)cc3)OC2=O)c1 [R=H; R1=3-CN—C6H4; R2=4-(3′-CN-biphenyl)] |  | 0 |  |
| O=C1O/C(=C\c2ccc(F)cc2)C(O)=C1c1ccc(Cl)s1 | 9 |  |  |
| O=C1OC(=Cc2cccc(Cl)c2)C(O)=C1c1ccc(Cl)cc1 (mixture of isomers) [R=H; R1=4-Cl—C6H4**; R2=3-Cl—C6H4] |  | 9 |  |
| O=C1OC(=Cc2ccccc2C(F)(F)F)C(O)=C1c1ccc(F)cc1 [R=H; R1=4-F—C6H4; R2=2-CF3—C6H4] |  | 0 |  |
| O=C1O/C(=C\c2cccc3ccccc23)C(O)=C1c1ccc(C(F)(F)F)cc1 [R=H; R1=4-CF3—C6H4; R2=1-naphthyl] |  | 9 |  |
| COc1ccc(/C=C2\OC(=O)C(c3ccc(OC)cc3)=C2O)cc1 [R=H; R1=4-OCH3—C6H4; R2=4-OCH3—C6H4] |  | 0 |  |
| O=C1O/C(=C\c2ccc(-c3ccccc3F)cc2)C(O)=C1c1ccccc1F [R=H; R1=2-F—C6H4; R2=4-(2′-F-biphenyl)] |  | 8 |  |
| O=C1OC(=Cc2ccc(-c3ccc(Cl)s3)cc2)C(O)=C1c1ccc(OC(F)(F)F)cc1 (mixture of isomers) | 9 |  |  |
| COc1ccc(/C=C2\OC(=O)C(c3cc(Cl)cc(Cl)c3)=C2O)c2ccccc12 |  | 0 |  |
| O=C1O/C(=C\c2ccc(Cl)cc2)C(O)=C1c1ccc(Cl)s1 | 9 |  |  |
| COC1=C(c2ccc(OC)cc2)C(=O)O/C1=C\c1ccccc1 [R=CH3; R1=4-OCH3—C6H4; R2=C6H5] |  | 0 |  |
| CCCOc1ccc(C=C2OC(=O)C(c3ccc(OC(F)(F)F)cc3)=C2O)cc1 (mixture of isomers) | 0 |  |  |
| COC1=C(c2ccc(Cl)cc2)C(=O)O/C1=C\c1ccccc1 [R=CH3; R1=4-Cl—C6H4; R2=C6H5] |  | 0 |  |
| O=Cc1cccc(C2=C(O)/C(=C/c3cccc4ccccc34)OC2=O)c1 [R=H; R1=3-CHO—C6H4; R2=1-naphthyl] |  | 0 |  |
| O=C1OC(=Cc2ccc(C(F)(F)F)cc2)C(O)=C1c1ccc(C(F)(F)F)cc1 (mixture of isomers) [R=H; R1=4-CF3—C6H4**; R2=4-CF3—C6H4] | 9 |  |  |
| O=C1OC(=Cc2ccc3c(c2)OC(F)(F)O3)C(O)=C1c1ccc(OC(F)(F)F)cc1 (mixture of isomers) | 9 |  |  |
| O=C1OC(=Cc2ccccc2C(F)(F)F)C(O)=C1c1ccc(Cl)cc1 (mixture of isomers) [R=H; R1=4-Cl—C6H4**; R2=2-CF3—C6H4] | 9 |  |  |
| Cc1cc(/C=C2\OC(=O)C(c3cc(Cl)cc(Cl)c3)=C2O)ccc1-c1ccccc1Cl |  | 7 |  |
| N#Cc1ccc(C2=C(O)C(=Cc3ccc(-c4ccc(C#N)cc4)cc3)OC2=O)cc1 [R=H; R1=4-CN—C6H4; R2=4-(4′-CN-biphenyl)] |  | 8 |  |
| N#Cc1ccc(/C=C2\OC(=O)C(c3ccc(Cl)s3)=C2O)cc1 | 9 |  |  |

| SMILES | Rating (dose 100 ppm) | Rating (dose 150 ppm) | other results |
| --- | --- | --- | --- |
| COC1=C(c2cccc(C(F)(F)F)c2)C(=O)O/C1=C\c1cccc(C(F)(F)F)c1 [R=CH3; R1=3-CF3—C6H4; R2=3-CF3—C6H4] |  | 0 |  |
| Cc1ccc(C2=C(O)/C(=C/c3ccc(-c4ccc(C)cc4)cc3)OC2=O)cc1 |  | 0 |  |
| Cc1cccc(C2=C(O)C(=Cc3cc(C(F)(F)F)ccc3Cl)OC2=O)c1C |  |  | Rating (dose 200 μM): 0 |
| CC(=O)c1ccc(C2=C(O)C(=Cc3ccccc3C(F)(F)F)OC2=O)cc1 [R=H; R1=4-COCH3—C6H4; R2=2-CF3—C6H4] |  | 0 |  |
| O=C1O/C(=C\c2ccc(N3CCOCC3)c3ccccc23)C(O)=C1c1cc(Cl)cc(Cl)c1 |  | 0 |  |
| COc1ccc(-n2ncc(C=C3OC(=O)C(c4ccc(OC(F)(F)F)cc4)=C3O)c2C)cc1 (mixture of isomers) | 0 |  |  |
| COc1ccccc1-c1ccc(/C=C2\OC(=O)C(c3cc(Cl)cc(Cl)c3)=C2O)cc1OC |  | 0 |  |
| N#Cc1ccc(/C=C2\OC(=O)C(c3ccc(C#N)cc3)=C2O)cc1 [R=H; R1=4-CN—C6H4**; R2=4-CN—C6H4] |  | 9 |  |
| O=C1OC(=Cc2ccncc2)C(O)=C1c1ccc(OC(F)(F)F)cc1 (mixture of isomers) [R=H; R1=4-OCF3—C6H4**; R2=pyridine-4-yl] | 0 |  |  |
| Cc1c(C=C2OC(=O)C(c3ccc(OC(F)(F)F)cc3)=C2O)cnn1-c1ccccc1 (mixture of isomers) | 0 |  |  |
| O=C1OC(=Cc2ccc(SC(F)(F)F)cc2)C(O)=C1c1ccc(Cl)cc1 (mixture of isomers) [R=H; R1=4-Cl—C6H4**; R2=4-SCF3—C6H4] | 9 |  |  |
| O=C1O/C(=C\c2ccc(C(F)(F)F)cc2)C(O)=C1c1ccc(Cl)s1 | 9 |  |  |
| O=C1OC(=Cc2cnccc2-c2ccc(Cl)cc2)C(O)=C1c1ccc(OC(F)(F)F)cc1 (mixture of isomers) | 9 |  |  |
| CC(=NO)c1ccc(C2=C(O)C(=Cc3cccc4ccccc34)OC2=O)cc1 [R=H; R1=4-(CH3C═NOH)—C6H4; R2=1-naphthyl] |  | 7 |  |
| O=C1OC(=Cc2cc(F)cc(C(F)(F)F)c2)C(O)=C1c1ccc(OC(F)(F)F)cc1 (mixture of isomers) [R=H; R1=4-OCF3—C6H4**; R2=3-F-5-CF3—C6H3] | 9 |  |  |
| O=C1O/C(=C\c2cccc(C(F)(F)F)c2)C(O)=C1c1ccc(Cl)cc1 [R=H; R1=4-Cl—C6H4; R2=3-CF3—C6H4] |  | 9 |  |
| CCCCc1ccc(-c2ccc(C3=C(O)C(=Cc4cccc(C(F)(F)F)c4Cl)OC3=O)cc2)cc1 |  |  | Rating (dose 200 μM): 9 |
| CC(C)(C)c1ccc(-c2ccc(C3=C(O)/C(=C/c4cccc(C(F)(F)F)c4)OC3=O)cc2)cc1 |  |  | Rating (dose 200 μM): 0 |
| N#Cc1ccc(C2=C(O)C(=Cc3ccc(-c4ccc(Cl)cc4)cc3)OC2=O)cc1 |  | 9 |  |
| O=C1OC(=Cc2cccc3ccccc23)C(O)=C1c1cccc(CO)c1 [R=H; R1=3-CH2OH—C6H4; R2=1-naphthyl] |  | 0 |  |
| COc1cc(/C=C2\OC(=O)C(c3cc(Cl)cc(Cl)c3)=C2O)ccc1-c1ccccc1C |  | 9 |  |
| O=C1OC(=Cc2ccc(OCC3CC3)cc2)C(O)=C1c1ccc(OC(F)(F)F)cc1 (mixture of isomers) | 0 |  |  |
| O=C1OC(=Cc2cccc(C(F)(F)F)c2)C(O)=C1c1ccc(-c2ccccc2)cc1 [R=H; R1=4-biphenyl; R2=3-CF3—C6H4] |  |  | Rating (dose 200 μM): 9 |

| SMILES | Rating (dose 100 ppm) | Rating (dose 150 ppm) | other results |
| --- | --- | --- | --- |
| O=C1OC(=Cc2ccc(Oc3ccccc3)nc2)C(O)=C1c1ccc(OC(F)(F)F)cc1 (mixture of isomers) | 9 |  |  |
| COc1ccccc1-c1ccc(C=C2OC(=O)C(c3cccc(Cl)c3)=C2O)cc1C |  | 7 |  |
| O=C1O/C(=C\c2ccccc2-c2ccc(Cl)cc2)C(O)=C1c1ccc(Cl)cc1 [R=H; R1=4-Cl—C6H4; R2=2-(4′-Cl-biphenyl)] |  | 0 |  |
| O=C1O/C(=C\c2ccc(-c3cccc(C(F)(F)F)c3)cc2)C(O)=C1c1cccc(C(F)(F)F)c1 |  | 8 |  |
| O=C1O/C(=C\c2ccc(Cl)cc2)C(O)=C1c1cccs1 [R=H; R1=thiophen-2-yl; R2=4-Cl—C6H4] | 7 |  |  |
| Cc1cc(C=C2OC(=O)C(c3ccc(OC(F)(F)F)cc3)=C2O)n(C)n1 (mixture of isomers) | 0 |  |  |
| O=C1O/C(=C\c2ccc(F)c(F)c2)C(O)=C1c1ccc(Cl)s1 | 9 |  |  |
| O=C1O/C(=C\c2cccc3ccccc23)C(O)=C1c1cccc(C=NO)c1 [R=H; R1=3-(C═NOH)—C6H4; R2=1-naphthyl] |  | 0 |  |
| COC(=O)c1ccc(C2=C(O)/C(=C/c3cccc4ccccc34)OC2=O)cc1 [R=H; R1=4-CO2CH3—C6H4; R2=1-naphthyl] |  | 9 |  |
| O=C1OC(=Cc2ccc(C(F)(F)F)cc2)C(O)=C1c1cccs1 [R=H; R1=thiophen-2-yl; R2=4-CF3—C6H4] | 7 |  |  |
| COc1cc(/C=C2\OC(=O)C(c3cccc(Cl)c3)=C2O)ccc1-c1ccccc1C(F)(F)F |  | 9 |  |
| Cc1nn(C)c(Cl)c1C=C1OC(=O)C(c2ccc(OC(F)(F)F)cc2)=C1O (mixture of isomers) | 0 |  |  |
| O=C1O/C(=C\c2ccccc2)C(O)=C1c1cccc(C(F)(F)F)c1 [R=H; R1=3-CF3—C6H4; R2=C6H5] |  | 8 |  |
| O=C1O/C(=C\c2cc(F)cc(C(F)(F)F)c2)C(O)=C1c1cccc(-c2ccccc2)c1 [R=H; R1=3-biphenyl; R2=3-F-5-CF3—C6H3] |  |  | Rating (dose 200 μM): 9 |
| O=C1O/C(=C\c2ccc(OC(F)(F)F)cc2)C(O)=C1c1ccc(Cl)s1 | 9 |  |  |
| Cc1c(C=C2OC(=O)C(c3ccc(OC(F)(F)F)cc3)=C2O)cnn1-c1ccc(F)cc1 (mixture of isomers) | 0 |  |  |
| N#Cc1ccc(C2=C(O)C(=Cc3ccc(Cl)cc3Cl)OC2=O)cc1 (mixture of isomers) [R=H; R1=4-CN—C6H4**; R2=2,4-diCl—C6H4] | 9 |  |  |
| CCCc1ccc(-c2ccc(C3=C(O)/C(=C/c4cccc(C(F)(F)F)c4Cl)OC3=O)cc2)cc1 |  |  | Rating (dose 200 μM): 9 |
| Cc1ccc(C2=C(O)/C(=C/c3cc(C(F)(F)F)ccc3Cl)OC2=O)cc1 [R=H; R1=4-CH3—C6H4; R2=2-Cl-5-CF3—C6H3] |  |  | Rating (dose 200 μM): 0 |
| CN(C)c1ccc(/C=C2\OC(=O)C(c3ccc(C(F)(F)F)cc3)=C2O)c2ccccc12 |  | 0 |  |
| N#Cc1ccc(C2=C(O)C(=Cc3ccc(-c4ccc(C(F)(F)F)cc4)cc3)OC2=O)cc1 (mixture of isomers) | 9 |  |  |
| O=C1OC(=Cc2cccnc2Cl)C(O)=C1c1ccc(OC(F)(F)F)cc1 (mixture of isomers) | 9 |  |  |
